Results: patent US4275067A, “Decarboxyclavulanic acid thio ethers, their preparation and use” (Beecham Group Limited, priority 1977, dated 1981)
Values after ≈ are worked out from the molar mass of the structure shown. Where two headings read alike, the source gives them in different places.

How the values were obtained:
[1] = tested on: Staph. aureus Russell; assay: Antibacterial synergy with ampicillin; type: cell-based; settings: ampicillin without inhibitor
[2] = tested on: Saccharomyces cerevisiae; assay: Anti-fungal activity, microtitre method; type: cell-based; settings: glucosepeptone broth
From the text: (§1) The anti-fungal activity of the compound of Example 7 was investigated using a microtitre method, with glucosepeptone broth at 1/50 and 1/500 final dilutions of inoculum. The organisms used were Candida albicans and Saccharomyces cerevisiae. The minimum inhibitory concentrations (MIC) are shown below.

[3] = tested on: Candida albicans; assay: Anti-fungal activity, microtitre method; type: cell-based; settings: glucosepeptone broth
From the text: as §1

[4] = molecular target: T1, β-lactamase (Staph. aureus Russell) (Staphylococcus aureus, UniProt P00807); assay: β-lactamase inhibition; type: biochemical; settings: β-lactamase from Staph. aureus Russell; read-out: I50 (converted)
T1 construct: Source of β-lactamase; endogenous in cells; host or cells: Staph. aureus Russell
Method: (§2) I50 values were determined using the process described in Belgian Pat. No. 827,926.

[5] = molecular target: T2, β-lactamase (Ps. aeruginosa Dalgleish) (Pseudomonas aeruginosa, UniProt P16897); assay: β-lactamase inhibition; type: biochemical; settings: β-lactamase from Ps. aeruginosa Dalgleish; read-out: I50 (converted)
T2 construct: Source of β-lactamase; endogenous in cells; host or cells: Ps. aeruginosa Dalgleish
Method: as §2

[6] = molecular target: β-lactamase (Pseudomonas aeruginosa A); assay: β-lactamase inhibition; type: biochemical; settings: β-lactamase from Pseudomonas aeruginosa A
Method: as §2

[7] = molecular target: T3, β-lactamase (E. coli JT 4) (Escherichia coli, UniProt P62593); assay: β-lactamase inhibition; type: biochemical; settings: β-lactamase from E. coli JT 4; read-out: I50 (converted)
T3 construct: Source of β-lactamase; endogenous in cells; host or cells: E. coli JT 4
Method: as §2

[8] = molecular target: β-lactamase (Proteus mirabilis C 889); assay: β-lactamase inhibition; type: biochemical; settings: β-lactamase from Proteus mirabilis C 889
Method: as §2

[9] = molecular target: T4, β-lactamase (Enterobacter cloacae P 99) (Enterobacter cloacae, UniProt P05364); assay: β-lactamase inhibition; type: biochemical; settings: β-lactamase from Enterobacter cloacae P 99; read-out: I50 (converted)
T4 construct: Source of β-lactamase; endogenous in cells; host or cells: Enterobacter cloacae P 99
Method: as §2

[10] = tested on: Staph. aureus Russell and Klebsiella aerogenes E70; assay: Antibacterial synergy when combined with ampicillin (overall statement); type: cell-based

T3 sequence (P62593 24-286 limits assumed): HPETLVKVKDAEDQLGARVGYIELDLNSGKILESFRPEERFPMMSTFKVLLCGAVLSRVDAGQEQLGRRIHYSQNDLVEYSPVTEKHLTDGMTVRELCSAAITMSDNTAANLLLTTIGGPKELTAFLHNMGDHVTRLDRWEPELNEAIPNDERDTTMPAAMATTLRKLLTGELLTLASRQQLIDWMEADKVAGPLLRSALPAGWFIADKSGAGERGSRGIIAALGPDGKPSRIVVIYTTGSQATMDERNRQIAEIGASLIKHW
T4 sequence (P05364 21-381): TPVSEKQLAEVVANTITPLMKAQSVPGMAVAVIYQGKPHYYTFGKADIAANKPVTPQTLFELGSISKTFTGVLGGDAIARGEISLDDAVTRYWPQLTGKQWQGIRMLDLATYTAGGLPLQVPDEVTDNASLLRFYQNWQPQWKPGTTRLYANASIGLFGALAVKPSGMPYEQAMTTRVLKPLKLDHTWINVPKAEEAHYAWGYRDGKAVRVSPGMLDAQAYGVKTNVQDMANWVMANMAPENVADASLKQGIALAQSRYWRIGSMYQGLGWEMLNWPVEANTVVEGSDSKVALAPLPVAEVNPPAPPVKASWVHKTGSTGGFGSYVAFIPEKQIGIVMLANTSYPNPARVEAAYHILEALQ
T2 sequence (P16897 18-288): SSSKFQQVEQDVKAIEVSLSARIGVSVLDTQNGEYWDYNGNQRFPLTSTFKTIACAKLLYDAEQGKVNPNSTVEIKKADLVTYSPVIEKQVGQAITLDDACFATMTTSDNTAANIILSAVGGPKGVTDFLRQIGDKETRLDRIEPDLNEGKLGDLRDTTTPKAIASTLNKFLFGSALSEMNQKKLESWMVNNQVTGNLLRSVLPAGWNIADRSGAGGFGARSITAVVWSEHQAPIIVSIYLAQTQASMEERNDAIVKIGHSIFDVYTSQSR
T1 sequence (P00807 25-281): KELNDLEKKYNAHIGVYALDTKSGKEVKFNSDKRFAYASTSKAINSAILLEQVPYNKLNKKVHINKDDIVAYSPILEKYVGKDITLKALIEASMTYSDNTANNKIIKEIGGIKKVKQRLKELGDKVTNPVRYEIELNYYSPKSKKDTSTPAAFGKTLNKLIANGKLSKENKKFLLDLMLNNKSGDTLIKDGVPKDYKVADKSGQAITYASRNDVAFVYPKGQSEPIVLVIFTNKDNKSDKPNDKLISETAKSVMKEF

`CC1(C)S[C@@H]2[C@H](NC(=O)[C@H](N)c3ccccc3)C(=O)N2[C@H]1C(=O)O` [ampicillin] was tested, and the MIC for ampicillin [1] was 250 µg/mL.

`COC(=O)CCSC/C=C1/CN2C(=O)C[C@H]2O1` [Example 7, (Z)-(5R)-3-[2-(2-Methoxycarbonylethylthio)ethylidene]-4-oxa-1-azabicyclo[3.2.0]hetpan-7-one] gave an MIC ([2]; final dilution of inoculum 1/50, read-out: minimum inhibitory concentration (MIC)) greater than 100 µg/mL, an MIC ([2]; final dilution of inoculum 1/500, read-out: minimum inhibitory concentration (MIC)) of 100 µg/mL (≈ 389 µM) and an MIC ([3]; Candida albicans, final dilution of inoculum 1/50, read-out: minimum inhibitory concentration (MIC)) of 12.5 µg/mL (≈ 48.6 µM). The “minimum inhibitory concentration (MIC)” value ([3]; final dilution of inoculum 1/500) was 12.5 µg/mL (≈ 48.6 µM).

Work on `O=C1C[C@H]2O/C(=C\CSc3ccccc3)CN12` [Example 1, (Z, 5R)-3-(2-Phenylthioethylidene)-4-oxa-1-azabicyclo [3.2.0]heptan-7-one] yielded an IC50 [4] of 1010 nM, an IC50 [5] of 2430 nM and an I50 [6] of 2.2 µg/mL. It also gave an IC50 [7] of 1460 nM, an I50 [8] of 4.4 µg/mL and an IC50 [9] of 5340 nM. For the same compound, the antibacterial synergy [10] was “active as antibacterial synergists”.
